Read-outs that look alike come from different tables or passages of the source. Marks after values point to notes of the source that are not given here.
Assays:
[1] = test system: estrogen receptor (ER) activation in (-) SULT1E1 control Ishikawa cells; assay: Estrogen receptor activation (alkaline phosphatase activity), control strain; type: cell-based; details: Homo sapiens, read-out: Ligand EC50, ER activation
Experimental: (§1) pcDNA 3.1 constructs harboring either the SULT1E1 WT or double mutant (F75A/F80A) coding regions were generated using Gibson Assembly ([74]). The vectors were linearized using BGIII. Ishikawa cells were grown at 37 °C ± 2 deg. C in growth medium (MEM media containing 10% v/v FBS). At confluence, the cells were washed (3×) with PBS media before coating with an Opti-MEM solution containing a linearized construct (50 ng μg^−1) and lipofectamine (2.5 units ml^−1). After 24 h at 37 °C ± 2 deg. C, cells were washed (3×) with PBS before adding growth medium containing neomycin (400 μg ml^−1) to select transfectants. Selective growth medium was replenished every 48 h until single colonies could be isolated (∼3–6 weeks). Single colonies were transferred using trypsin digest (0.05%) to 12-well plates and grown at 37 °C ± 2 deg. C to confluence for further experimentation and storage.
(§2) Transfected Ishikawa cells were grown at 37 °C ± 2 deg. C to 60 to 70% confluency in MEM containing 10% v/v FBS. Cells were then transferred to 96-well tissue culture plates and grown at 37 °C ± 2 deg. C to 80% confluency in MEM containing 10% v/v charcoal filtered FBS. The plate was then washed with PBS and grown at 37 °C ± 2 deg. C for 24 h in MEM without FBS. Estradiol (0–3.0 μM) and OH-PCB (0–1.0 μM) solubilized in neat DMSO were added and cells were incubated at 37 °C ± 2 deg. C for 5 days. The final concentrations of DMSO were ≤0.10%. Cells were then washed twice with PBS before adding pNpp (5.0 mM) in PBS ([75]). Following incubation with pNpp for 3 h at 25 °C ± 2 deg. C, wells were read at 405 nm using a Synergy HT BioTek Plate Reader.

[2] = test system: estrogen receptor (ER) activation in Ishikawa cells expressing F75A/F80A SULT1E1; assay: cells; type: cell-based, human; details: for EC50: Homo sapiens, Ishikawa, read-out: Ligand EC50, ER activation
Experimental: as §1, §2

[3] = test system: estrogen receptor (ER) activation in Ishikawa cells expressing WT SULT1E1; assay: cells; type: cell-based, human; details: for EC50: Homo sapiens, Ishikawa, read-out: Ligand EC50, ER activation
Experimental: as §1, §2

SULT1E1 [4] = target: T1, SULT1E1 (Homo sapiens, UniProt P49888); assay: Equilibrium binding studies (SULT1E1 intrinsic fluorescence); details: for Kd: pH 7.4, 25 °C, spread = one SD
T1 construct: E. coli codon-optimized SULT1E1 coding region inserted into the PreScission Protease cleavage site; His/GST/MBP triple tag (N, cleaved yes); made in house; host or cells: E. coli BL21(DE3)
T1 sequence (P49888 1-294): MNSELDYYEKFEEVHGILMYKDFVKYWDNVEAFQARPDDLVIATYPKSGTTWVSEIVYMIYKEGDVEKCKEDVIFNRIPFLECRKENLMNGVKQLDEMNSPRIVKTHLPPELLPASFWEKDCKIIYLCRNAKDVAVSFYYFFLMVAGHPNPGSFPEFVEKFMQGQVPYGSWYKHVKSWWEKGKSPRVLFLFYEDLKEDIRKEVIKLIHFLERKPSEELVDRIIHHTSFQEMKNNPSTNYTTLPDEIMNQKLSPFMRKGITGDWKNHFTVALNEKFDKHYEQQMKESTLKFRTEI
Experimental: The binding of inhibitors to WT and mutant SULT1E1 was monitored via ligand-induced changes in the intrinsic fluorescence of the enzyme (λex= 290 nm, λem= 340 nm) ([4]). […] C. Titrations were performed in triplicate and the averaged data were least-squares fit to the following quadratic, single-site binding model: Io − ΔI∙(([L]+Etot + Kd) − [([L]+Etot + Kd)^2 − (4∙[L]∙Etot)]^1/2)/2∙Etot, where Io and ΔI represent fluorescent intensity at zero and infinite [L].

SULT1E1 [5] = target: T1, SULT1E1; design: method as in PMID 9556564; details: E2 as substrate; cited from earlier work
SULT1E1 [6] = target: T1, SULT1E1; design: method as in PMID 10803601; details: read-out: Ki (SULT1E1 inhibition); cited from earlier work
WT SULT1E1 = target: T2, WT SULT1E1 (Homo sapiens, UniProt P49888); assay: Initial-rate studies (1-HP sulfonation; OH-PCB inhibition), WT enzyme; type: biochemical; details: compared with ER-activation EC50 values; read-out: Ki values (SULT1E1)
T2 construct: E. coli codon-optimized SULT1E1 coding region inserted into the PreScission Protease cleavage site; His/GST/MBP triple tag (N, cleaved yes); made in house; host or cells: E. coli BL21(DE3)
T2 sequence (P49888 1-294): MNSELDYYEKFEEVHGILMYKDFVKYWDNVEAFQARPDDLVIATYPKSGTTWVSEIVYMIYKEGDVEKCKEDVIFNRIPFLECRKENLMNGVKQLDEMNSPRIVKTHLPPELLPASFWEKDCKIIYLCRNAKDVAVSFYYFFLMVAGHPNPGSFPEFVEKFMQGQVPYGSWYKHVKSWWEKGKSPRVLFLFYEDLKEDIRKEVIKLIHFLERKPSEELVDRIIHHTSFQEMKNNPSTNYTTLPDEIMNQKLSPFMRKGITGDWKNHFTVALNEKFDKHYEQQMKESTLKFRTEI
Experimental: (§3) C. Reaction progress was monitored via the fluorescence change associated with 1-HP sulfonation (λex = 325 nm, λem = 370 nm ([51], [52])). Initial rates were measured during conversion to product of ≤5% of the concentration-limiting substrate consumed at the reaction endpoint. Velocities were determined in triplicate. Km and kcat were obtained by (1/v^4)-weighted least-squares fitting of the averaged data in double-reciprocal space (i.e., 1/v versus 1/[S]) ([66], [67]).
(§4) Inhibition studies were performed as described above except: 1-HP was fixed (2.0 μM, 100 × Km), OH-PCBs were added (0.20–20 × Ki), and SULT1E1 was 0.20 nM (active sites). Ki was determined by least-squares fitting to a noncompetitive inhibition model ([66], [67]).

[7] = substrate: C[C@]12CC[C@@H]3c4ccc(O)cc4CC[C@H]3[C@@H]1CC[C@@H]2O; assay: E2 sulfonation initial-rate assay ([3H]-E2), WT; type: biochemical, human; details: other: WT, [3H]-E2, PAPS 0.30 mM, pH 7.5, 25 °C, parentheses = one SD
Experimental: SULT1E1-catalyzed conversion of [^3H]-E2 to [^3H]-E2-sulfate was quantitated as previously described ([68]). […] C. […] The reaction mixture was diluted tenfold with an E2 (10 μM), KPO4 (50 mM), pH 7.5 solution, and brought to pH 7.0 with HCl (6.0 N). The reaction was then mixed (1:1 v/v) with neat chloroform and centrifuged (15,000g, 5.0 min). The aqueous layer was removed, chloroform was extracted twice more, and radioactivity in the aqueous layer was then determined by liquid scintillation counting. Reactions were performed in triplicate and Km and kcat were obtained by (1/v^4)-weighted least-squares fitting of the data in double-reciprocal space (i.e., 1/v versus 1/[S]) ([67]).

[8] = substrate: Oc1ccc2ccc3cccc4ccc1c2c34; assay: Initial-rate studies (1-HP sulfonation; OH-PCB inhibition), WT enzyme; type: biochemical, human; details: other: WT, PAPS 0.30 mM, pH 7.5, 25 °C, parentheses = one SD
Experimental: as §3, §4

In the case of C[C@]12CC[C@@H]3c4ccc(O)cc4CC[C@H]3[C@@H]1CC[C@@H]2O [E2, 17-Beta-estradiol], the EC50 ([1]; Control cell line, E2 titration, parentheses = one SD) is reported as […], the EC50 ([2]; F75A/F80A cell line, E2 titration, parentheses = one SD) is reported as […] and the “ER-activation EC50 of E2, fold higher than in the control strain” value ([2]; MT (F75A/F80A) strain versus control strain) is reported as […]. The EC50 ([3]; WT cell line, E2 titration, parentheses = one SD) was […], the “ER-activation EC50 of E2, fold higher than in the control strain” value ([3]; WT strain versus control strain) was […] and the Kd (SULT1E1 [4]; OH-PCB1 10 μM, PAP 300 μM, read-out: Kd, ligand binding to enzyme species E⋅PAP⋅OH-PCB1) was 0.98 nM. The “fold tighter binding in the presence of the partner ligand (OH-PCB1/E2 interaction)” value (SULT1E1 [4]; OH-PCB1: E⋅E2 versus E, E2: E⋅PAP⋅OH-PCB1 versus E⋅PAP) was […], the Kd (SULT1E1 [4]; OH-PCB2 7.0 μM (higher partner concentration), PAP 0.30 mM, read-out: Kd, ligand binding to enzyme species E⋅PAP⋅OH-PCB2) was 1.1 nM and the Kd (SULT1E1 [4]; PAP 300 μM, read-out: Kd, ligand binding to enzyme species E⋅PAP) was […]. For the same molecule, the Km (SULT1E1 [5]) was […].

For Oc1c(Cl)cc(-c2ccc(Cl)c(Cl)c2)cc1Cl [OH-PCB2, 4-OH-3,3',4',5-tetrachlorobiphenol], the Ki (SULT1E1 [6]) is given as about 0.4 nM, the Ki (WT SULT1E1) is given as 0.5 nM and the EC50 [1] is given as over 1000 nM. It also gave an EC50 [2] of over 1000 nM, an EC50 [3] of 0.87 nM and a Kd (SULT1E1 [4]; E2 4.0 μM (higher partner concentration), PAP 300 μM, read-out: Kd, ligand binding to enzyme species E⋅PAP⋅E2) of 0.4 nM. It also gave a Kd (SULT1E1 [4]; free enzyme E, read-out: Kd, ligand binding to enzyme species E) of 7.2 nM.

B1: WT SULT1E1 (Homo sapiens) (protein)
chain: MNSELDYYEKFEEVHGILMYKDFVKYWDNVEAFQARPDDLVIATYPKSGTTWVSEIVYMIYKEGDVEKCKEDVIFNRIPFLECRKENLMNGVKQLDEMNSPRIVKTHLPPELLPASFWEKDCKIIYLCRNAKDVAVSFYYFFLMVAGHPNPGSFPEFVEKFMQGQVPYGSWYKHVKSWWEKGKSPRVLFLFYEDLKEDIRKEVIKLIHFLERKPSEELVDRIIHHTSFQEMKNNPSTNYTTLPDEIMNQKLSPFMRKGITGDWKNHFTVALNEKFDKHYEQQMKESTLKFRTEI
notes: E. coli codon-optimized SULT1E1 coding region inserted into the PreScission Protease cleavage site; His/GST/MBP triple tag (N, cleaved yes); made in house; host or cells: E. coli BL21(DE3)
With B1 the Km [7] was 3.8 (0.2) ^a nM, the kcat [7] was 2.5 s⁻¹ and the Km [8] was 25 (2.2) ^c nM. It also gave a kcat [8] of 0.633 s⁻¹.

— article PMC7949139, “The molecular basis of OH-PCB estrogen receptor activation” (The Journal of Biological Chemistry, 2021)
